# From patent US20120040951A1, “HETEROARYL COMPOUNDS USEFUL AS RAF KINASE INHIBITORS” (priority 2008, published 2012)
# Columns and labels:
# [1] = test system: phospho-ERK in melanoma derived WM-266-4 cells; assay: Mechanistic cellular assay for Raf kinase activity (phospho-ERK, Bio-Plex); assay type: cell-based; details: Homo sapiens, treated 1-2 hr at 37° C., serum free medium, read-out: pERK EC50
# Outline: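 WM-266-4 melanoma cells (wild-type/V600D BRaf) grown overnight in 10% FBS RPMI, then treated 1–2 h at 37 °C in serum-free RPMI with eight 3-fold dilutions of compound (from 5 mM DMSO stock, 1000× dilution). Lysate phospho-ERK1,2 quantified by Bio-Plex bead immunoassay.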
# [2] = target: V599E Raf (Homo sapiens, UniProt P15056, V600E); assay: Biochemical FRET assay, mutant Raf (phosphorylation of MEK); details: 0.125 nM V599E Raf, 100 nM biotin-MEK, 25 μM ATP, read-out: Raf (mut) inhibition
# Sequence of V599E Raf (P15056 whole entry V600E): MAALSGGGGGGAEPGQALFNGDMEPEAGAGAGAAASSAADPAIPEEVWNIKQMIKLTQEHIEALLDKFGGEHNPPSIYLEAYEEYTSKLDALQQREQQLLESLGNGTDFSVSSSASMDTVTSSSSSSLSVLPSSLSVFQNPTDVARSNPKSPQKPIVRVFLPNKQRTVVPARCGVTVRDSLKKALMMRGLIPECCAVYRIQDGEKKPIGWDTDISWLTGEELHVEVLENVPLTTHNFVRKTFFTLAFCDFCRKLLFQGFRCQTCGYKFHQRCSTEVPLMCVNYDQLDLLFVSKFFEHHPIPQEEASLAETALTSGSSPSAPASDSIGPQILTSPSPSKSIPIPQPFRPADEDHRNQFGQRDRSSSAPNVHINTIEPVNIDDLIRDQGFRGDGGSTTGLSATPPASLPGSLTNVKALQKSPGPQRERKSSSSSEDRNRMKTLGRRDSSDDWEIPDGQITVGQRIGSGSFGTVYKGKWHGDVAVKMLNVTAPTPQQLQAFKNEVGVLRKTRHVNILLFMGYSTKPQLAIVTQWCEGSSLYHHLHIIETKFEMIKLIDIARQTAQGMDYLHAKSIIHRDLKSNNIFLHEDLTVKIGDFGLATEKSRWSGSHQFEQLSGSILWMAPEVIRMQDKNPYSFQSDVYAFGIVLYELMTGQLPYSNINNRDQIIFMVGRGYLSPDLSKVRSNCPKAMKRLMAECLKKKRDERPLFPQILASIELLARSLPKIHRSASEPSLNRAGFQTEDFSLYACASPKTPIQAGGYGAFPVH
# Method: (1) Biochemical FRET Assay […]
# Inhibitors were diluted 4-fold in 100% DMSO and added to a final concentration of 10 μM to 40 μM to a solution containing 100 nM biotin-MEK, 0.125 nM V599E Raf in 50 mM HEPES, pH 7.4, 60 mM NaCl, 3 mM MgCl2, 2 mM DTT, 0.25 mM MnCl2, 0.01% BSA, and 0.01% Tween-20 and incubated for 20 minutes at room temperature. The kinase reaction was started by the addition of 25 μM ATP to a final volume of 45 μl and allowed to progress for 60 minutes. The reaction was stopped with 15 mM EDTA and 20 nM Streptavidin-APC, 2.5 nM Polyclonal anti p-MEK1/2 (Ser217/221), 2.5 nM Eu-labeled anti-rabbit IgG were added in Lance detection buffer and 5% Superblock in PBS for a final volume of 100 μl. The detection reaction was incubated for 90 minutes at room temperature and then read on an Analyst plate reader using standard TR-FRET (time resolved fluorescence resonance energy transfer) settings for Eu and APC.
# Compounds having an activity designated as “A” provided an IC50≦100 nM; compounds having an activity designated as “B” provided an IC50 of 100-1000 nM; and compounds having an activity designated as “C” provided an IC50 of 1000-10,000 nM.
SMILES,EC50 [1],IC50 [2]
CC(NC(=O)c1ccc2nccnc2c1)c1cnc(Nc2ccc(C(F)(F)F)cc2)s1 (centres unmarked) [Example 73],100 to 1000 nM,≤ 100 nM
CC(NC(=O)c1ccc2ncsc2c1)c1cnc(Nc2ccc(C(F)(F)F)cc2)s1 (centres unmarked) [Example 74],1000 to 10000 nM,≤ 100 nM
CC(NC(=O)c1ccc2nc(N)sc2c1)c1cnc(Nc2ccc(C(F)(F)F)cc2)s1 (centres unmarked) [Example 75],100 to 1000 nM,≤ 100 nM
CC(NC(=O)c1ccc2ncn(C)c2c1)c1cnc(Nc2ccc(C(F)(F)F)cc2)s1 (centres unmarked) [Example 76],1000 to 10000 nM,≤ 100 nM
CC(NC(=O)c1cc2nc[nH]c2cn1)c1ncc(C(=O)Nc2cc(C(F)(F)F)c(Cl)cn2)s1 (centres unmarked) [Example 77],≤ 100 nM,≤ 100 nM
Cc1c(C(=O)NC(C)c2cnc(Nc3ccc(C(F)(F)F)cc3)s2)cnn1C (centres unmarked) [Example 82],100 to 1000 nM,≤ 100 nM
C[C@@H](NC(=O)c1cnn2ccccc12)c1ncc(C(=O)Nc2cc(C(F)(F)F)c(Cl)cn2)s1 [Example 86],100 to 1000 nM,≤ 100 nM
CC(NC(=O)c1cc(N)ccn1)c1ncc(C(=O)Nc2cc(C(F)(F)F)c(Cl)cn2)s1 (centres unmarked) [Example 87],1000 to 10000 nM,100 to 1000 nM
C[C@@H](NC(=O)c1cccc(N2CCOCC2)n1)c1ncc(C(=O)Nc2cc(C(F)(F)F)c(Cl)cn2)s1 [Example 90],100 to 1000 nM,≤ 100 nM
C[C@@H](NC(=O)c1cccc(Br)n1)c1ncc(C(=O)Nc2cc(C(F)(F)F)c(Cl)cn2)s1 [Example 91],1000 to 10000 nM,100 to 1000 nM
C[C@@H](NC(=O)c1cccc(N)n1)c1ncc(C(=O)Nc2cc(C(F)(F)F)c(Cl)cn2)s1 [Example 92],1000 to 10000 nM,≤ 100 nM
CC(=O)Nc1cccc(C(=O)N[C@H](C)c2ncc(C(=O)Nc3cc(C(F)(F)F)c(Cl)cn3)s2)n1 [Example 93],1000 to 10000 nM,100 to 1000 nM
C[C@@H](NC(=O)c1cccc(N2CCCCC2)n1)c1ncc(C(=O)Nc2cc(C(F)(F)F)c(Cl)cn2)s1 [Example 94],1000 to 10000 nM,100 to 1000 nM
C[C@@H](NC(=O)c1csc(-c2ccncc2)n1)c1ncc(C(=O)Nc2cc(C(F)(F)F)c(Cl)cn2)s1 [Example 97],1000 to 10000 nM,≤ 100 nM
C[C@@H](NC(=O)c1cn[nH]c1-c1ccccc1)c1ncc(C(=O)Nc2cc(C(F)(F)F)c(Cl)cn2)s1 [Example 107],100 to 1000 nM,≤ 100 nM
CC(NC(=O)c1cnn(C)c1N)c1cnc(Nc2ccc(C(F)(F)F)cc2)s1 (centres unmarked) [Example 108],100 to 1000 nM,≤ 100 nM
CC(NC(=O)c1cnn(C)c1)c1cnc(Nc2ccc(C(F)(F)F)cc2)s1 (centres unmarked) [Example 109],1000 to 10000 nM,≤ 100 nM

# Now from value to compound:
EC50 [1],IC50 [2],SMILES
100 to 1000 nM,100 to 1000 nM,CC(NC(=O)c1ccnc(N2CCOCC2)c1)c1ncc(C(=O)Nc2cc(C(F)(F)F)c(Cl)cn2)s1 (centres unmarked) [Example 89]
1000 to 10000 nM,≤ 100 nM,C[C@@H](NC(=O)c1cscn1)c1ncc(C(=O)Nc2cc(C(F)(F)F)c(Cl)cn2)s1 [Example 95]
1000 to 10000 nM,≤ 100 nM,Cc1scnc1C(=O)N[C@H](C)c1ncc(C(=O)Nc2cc(C(F)(F)F)c(Cl)cn2)s1 [Example 96]
1000 to 10000 nM,≤ 100 nM,C[C@@H](NC(=O)c1csc(N)n1)c1ncc(C(=O)Nc2cc(C(F)(F)F)c(Cl)cn2)s1 [Example 98]
1000 to 10000 nM,≤ 100 nM,Cc1ncsc1C(=O)N[C@H](C)c1ncc(C(=O)Nc2cc(C(F)(F)F)c(Cl)cn2)s1 [Example 99]
1000 to 10000 nM,≤ 100 nM,Cc1nc(C)c(C(=O)N[C@H](C)c2ncc(C(=O)Nc3cc(C(F)(F)F)c(Cl)cn3)s2)s1 [Example 101]
1000 to 10000 nM,≤ 100 nM,Cc1ncoc1C(=O)N[C@H](C)c1ncc(C(=O)Nc2cc(C(F)(F)F)c(Cl)cn2)s1 [Example 103]
1000 to 10000 nM,≤ 100 nM,C[C@@H](NC(=O)c1cnc(N2CCN(C)CC2)s1)c1ncc(C(=O)Nc2cc(C(F)(F)F)c(Cl)cn2)s1 [Example 106]
